According to patent US4767749A, “Ester of (triarylphosphoranylidene)carbamic acid having diuretic and ability to lower plasma renin properties” (American Cyanamid Company, priority 1986, dated 1988):

Columns and labels:
[1] = tested on: spontaneously hypertensive rats (SHR); test: Diuretic activity in spontaneously hypertensive rats; format: in vivo, male spontaneously hypertensive rats (Okamoto strain); conditions: 100 mg/kg by gavage with 0.9% sodium chloride loading 25 ml/kg; 0-5 hour urine
Experimental: The diuretic activity of the compounds of this invention was also determined according to the method of Chan, P. S. and Poorvin, D., Sequential method for combined screening antihypertensive and diuretic agents in the same spontaneously hypertensive rat. Clinical and Experimental Hypertension, 1(6), 817-830 (1979).
Male spontaneously hypertensive rats (SHR) of Okamoto strain, 16 weeks old, Taconic Farms Inc. were used in the test. These rats were kept on Purina laboratory chow and tap water ad libitum for 8 weeks before use. One male adult rat (about 300 g) was dosed by gavage with a test compound at 100 mg/kg together with 0.9% sodium chloride loading at 25 ml/kg at zero hour. The test compound was suspended in 3% preboiled starch at 50 mg/ml. The rat was put in a metabolism cage. The 0-5 hour urine was collected and urinary sodium and potassium were determined using a Beckman Astra 4. The effects of representative compounds of the invention according to this test appear in Table III expressed in milliequivalents (mEQ) of urinary sodium and potassium excreted.

[2] = tested on: plasma renin activity; test: Inhibition of evoked (drug-induced) elevation of plasma renin activity in conscious rats; format: in vivo, male Wistar rats; conditions: Rattus norvegicus; 25 mg/kg oral, 30 min before provocative treatment
Experimental: Inhibition of evoked increase of plasma renin activity was determined by the following test.
Compounds were tested for their ability to prevent drug-induced elevation of plasma renin activity (PRA) in concious, male Wistar rats (180-200 g, Charles River Lab.). PRA elevation was induced by a combined oral provacative treatment (C) of hydrochlorothiazide (10 mg/kg) and 1-(3-benzoyl-3-mercapto-2-methylpropionyl)-L-proline, acetate (U.S. Pat. No. 4,226,775) (one mg/kg), prepared by compounding in a mortar and pestle with preboiled 3% starch suspension. This treatment provided the daily maximum PRA. The daily minimum PRA was obtained from rats given oral starch suspension (S) alone. The magnitude of drug effect on PRA elevation was ascertained from rats pretreated orally with test agent (D), at the indicated doses, 30 minutes prior to administration of provacative treatment (C). The test agent was also compounded in preboiled 3% starch suspension. The dose volumes for both pretreatment and provocative treatment were 2 ml/kg. One hour after provocative treatment the rats were sacrificed by decapitation and the first 3 seconds of blood collected in two chilled Vacutainer® tubes (Becton-Dickinson, Rutherford, N.J.) containing 40 μl of 150 mg/ml tripotassium EDTA. The plasma fractions, obtained by centrifugation for 20 minutes at 4° C. and 3000 G, were incubated (one of each pair at 37° C., the other at 4° C.) at pH 6.8 in 50 mM phosphate buffer to produce angiotensin I. The incubates contained peptidase inhibitors to prevent angiotensin I degradation and the incubation buffer contained one mg/ml lysozyme (Sigma Grade III) used as an antiabsorbant. The incubates were diluted 20 fold in cold 100 mM Tris buffer (pH adjusted to 7.4 with glacial acetic acid) also containing one mg/ml lysozyme, and then frozen. Diluted incubates were assayed within 3 days for angiotensin I content by radioimmunoassay according to a modification of the method of Haber, et al., J. Clin. Endocrin., 29, 1349-1355 (1969).
PRA is calculated as follows:
PRA(ng AI/hour/ml plasma)=PRA 37° C.-PRA 4° C.
Percent inhibition of PRA elevation is calculated as follows: [formula]

SMILES | Potassium (urinary excretion) [1] [mEQ/5 Hours] | Sodium (urinary excretion) [1] [mEQ/5 Hours] | Volume (urine) [1] [mL] | inhibition in vivo at 25 mg/kg [2] [%]
Cc1ccccc1P(=NC(=O)OCC1CC1)(c1ccccc1)c1ccccc1 [[(2-methylphenyl)diphenylphosphoranylidene]carbamic acid, cyclopropylmethyl ester] | 0.73 | 1.33 | 12.0 | 72
CCOC(=O)N=P(c1ccccc1)(c1ccccc1C)c1ccccc1C [[bis(2-methylphenyl)phenylphosphoranylidene]carbamic acid, ethyl ester] | 0.73 | 1.46 | 14.5 | 54
CCOC(=O)N=P(c1ccccc1)(c1ccccc1)c1ccccc1C(F)(F)F [[diphenyl[2-(trifluoromethyl)phenyl]phosphoranylidene]carbamic acid, ethyl ester] | 0.91 | 2.12 | 19.3 | 75
COC(=O)N=P(c1ccccc1)(c1ccccc1)c1ccccc1C(F)(F)F [[diphenyl[2-(trifluoromethyl)phenyl]phosphoranylidene]carbamic acid, methyl ester] | 1.02 | 1.71 | 18.5 | 49
